From US20070202079A1, “Therapeutic compositions and methods useful in modulating protein tyrosine phosphatases” (priority 2006, published 2007) come the findings set out here.

The target in one assay is T1, MKP1 (Homo sapiens, UniProt P28562).
T1 construct: a pGEX construct containing the coding region of MKP1 cDNA derived by RT-PCR; made in house; host or cells: DH5a bacteria (E. coli)
T1 sequence (P28562 1-367): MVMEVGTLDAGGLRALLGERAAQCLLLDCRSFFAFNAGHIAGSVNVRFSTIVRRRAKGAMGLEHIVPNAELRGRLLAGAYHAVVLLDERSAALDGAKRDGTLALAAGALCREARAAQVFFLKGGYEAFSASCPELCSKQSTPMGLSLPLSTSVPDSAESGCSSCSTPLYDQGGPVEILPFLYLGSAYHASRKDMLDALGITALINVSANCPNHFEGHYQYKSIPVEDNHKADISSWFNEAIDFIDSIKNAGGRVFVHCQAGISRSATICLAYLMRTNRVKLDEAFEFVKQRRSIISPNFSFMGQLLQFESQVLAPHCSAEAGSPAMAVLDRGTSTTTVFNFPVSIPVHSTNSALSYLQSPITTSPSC
Nature of the assay: in vitro PTPase assay, GST/MKP1. Conditions: for inhibition of MKP1: levamisole, pentamidine, ketoconazole. Type of assay: biochemical. As to the method:
In vitro PTPase activities were measured using the commercial protein tyrosine phosphatase assay kit (Upstate Biotechnology, Inc. (“UBI”)) following established procedure known to one of skill in the art. This assay measures the in vitro dephosphorylation of a synthetic phosphotyrosine peptide of the sequence Arg-Arg-Leu-Ile-Glu-Asp-Ala-Gle-T- -yr-Ala-Ala-Arg-Gly, wherein the tyrosine is phosphorylated (SEQ ID NO: 3). Briefly, 0.01 μg of GST/PTPase fusion proteins was incubated in 50 μl of Tris buffer (10 mM Tris, pH 7.4) containing different concentrations of inhibitors or chemicals (0-1,000 μg/ml) at 22° C. for 10 minutes, followed by addition of 0.2 mM of the phosphotyrosine peptide and incubation at 22° C. for 18 hours. 100 μl of Malachite Green solution was added and incubated for 5 minutes, and the absorbance at 660 nm was measured after 5 minutes.
In vitro PTPase assays were used to determine the effects of levamisole (Sigma), pentamidine (American Pharmaceutical Partners, Inc.), and ketoconazole (Sigma) on recombinant PTPases, following established procedures (Pathak et al., J. Immunol. 167, 3391 (2001); Pathak et al., Leukemia 16, 2285 (2002), Yi et al., J. Immunol. 169, 5978 (2002)) using a synthetic phosphotyrosine peptide or DiFMUP as the substrate as detailed above in section I.A.2.

The subject of another assay is WM9 cells. Nature of the assay: WM9 cell growth, MTT. The assay is classed as cell-based, human. As to the method:
For cell proliferation assays, cells were grown in 10% FCS culture medium containing various amounts of IFNs and/or sodium stibogluconate in 96 well plates and cultured at 37° C. for 3 or 6 days as indicated. The numbers of viable cells in proliferation assays were determined by MTT assays as described in Phatak et al., J. Immunol. 167, 3391 (2001).
Renca (Murphy, G. P., and W. J. Hrushesky. 1973. A murine renal cell carcinoma. J Natl Cancer Inst 50:1013), Jurkat (Gillis, S., and J. Watson. 1980. Biochemical and biological characterization of lymphocyte regulatory molecules. V. Identification of an interleukin 2-producing human leukemia T cell line. J Exp Med 152:1709) and WM9 (Forsberg, K., I. Valyi-Nagy, C. H. Heldin, M. Herlyn, and B. Westermark. 1993. Platelet-derived growth factor (PDGF) in oncogenesis: development of a vascular connective tissue stroma in xenotransplanted human melanoma producing PDGF-BB. Proc Natl Acad Sci USA 90:393) cell lines were obtained from a colleague at the Cleveland Clinic Foundation (CCF) and cultured in RPMI 1640 medium supplemented with 10% fetal calf serum (FCS). Recombinant IL-2 (Proleukin, 22 million IU/1.3 mg, Chiron, Emeryville, Calif.) was purchased from the CCF pharmacy. SSG has been described previously (Yi, T., M. K. Pathak, D. J. Lindner, M. E. Ketterer, C. Farver, and E. C. Borden. 2002. Anticancer activity of sodium stibogluconate in synergy with IFNs. J Immunol 169:5978).
NIH3T3 (Yi, et al., Blood 85, 87 (1995)), WM9 (Forsberg, et al., Proc. Nat. Acad Sci. USA 90, 393 (1993)), DU145 (Mickey, et al., Cancer Res. 37, 4049 (1977)), LoVo (Drewinko, et al., Cancer Res. 36, 467 (1976)), HEY (Buick, et al., Cancer Res. 45, 3668 (1985)), U251 (Yoshida, et al., Cancer 50, 410 (1982)), A549 (Giard, et al., J. Natl. Cancer Inst. 51, 1417 (1973)) and SK-N-SH (Helson, et al., Cancer Res. 35, 2594 (1975)) cell lines have been described and were cultured in RPMI 1640 supplemented with 10% fetal calf serum (FCS). For measurement of sodium stibogluconate effects on cell growth in vitro, cells were cultured in the absence (−) or presence (+) of various amounts of sodium stibogluconate for 6 days with viable cells quantified by MTT assays (Mosmann, J. Immunol. Methods 65, 55 (1983)). Percentages of growth inhibition by sodium stibogluconate were calculated (.+−.x%).

Like-named read-outs stand apart in the source and are kept apart here.

Regarding `CC(=O)N1CCN(c2ccc(OCC3COC(Cn4ccnc4)(c4ccc(Cl)cc4Cl)O3)cc2)CC1` (centres unmarked) [ketoconazole], on MKP1, the “inhibition of MKP1” value is “substantial inhibition”. Also, in the assay with WM9 cells (40 μg/ml), the “effect on IFN-alpha activity, WM9” value is “minor augmenting effect”. For the same compound, in the assay on WM9 cells (0.625-20 μg/ml, single agent or with IFN-alpha), the “activity against WM9 cells” value is on record as “no apparent activity”. Also, the inhibition (as a rule, the percentage by which the read-out fell short of the control) at 40 µg/mL with WM9 cells (Homo sapiens, WM9, 144 h, single agent, 40 μg/ml, 6 days) was 67%.

As for `N=C(N)c1ccc(OCCCCCOc2ccc(C(=N)N)cc2)cc1` [pentamidine], at MKP1, the “inhibition of MKP1” value is “substantial inhibition”. In addition, the “effect on IFN-alpha-induced growth inhibition of WM9” value in the assay on WM9 cells (most obviously at 0.625-1.25 μg/ml) is “augmented IFN-alpha-induced growth inhibition”. The “growth inhibition of WM9 cells” value in the assay on WM9 cells (single agent, 2.5-5 μg/ml, 6 days) is 86-97%.

Turning to `O.O.O.O.O.O.O.O.O.O=C([O-])[C@@H]1[O][Sb]2([O-])([O][Sb]34([OH])[O][C@H]([C@H](O)CO)[C@H]([O]3)[C@H](C(=O)[O-])[O]4)[O][C@H]([C@H](O)CO)[C@@H]1[O]2.[Na+].[Na+].[Na+]` [sodium stibogluconate], the “inhibitory activity against MKP1” value was “no obvious inhibitory activity” on MKP1 and “no obvious effects” at MKP1 (listed as SS). Further, in the assay with WM9 cells (50 μg/ml and 100 μg/ml, day 6 culture), the “WM9 cells, single agent” value is listed as “killed all cells”. Moreover, the “WM9 cell growth in culture” value in the assay on WM9 cells (SSG, 6 days, comparable conditions) was “inhibited by SSG in a dose-dependent manner”.
